Measured values published in publication PMC12040169 (PLOS Biology, 2025).

Test: in vitro
Conditions: human, hela cells, % viability

| SMILES | viability at 28.5 h, 10 µM |
| --- | --- |
| O=C(NCc1cc[nH]n1)N1CCCN(Cc2cccs2)CC1 [CBK305645] | 82% |
| Cc1cccc(OCCn2cncc2-c2cnn(C)c2)c1C [CBK281497] | 99.5% |
| COc1ccc(-c2ccc3c(c2)C(=O)N2CC[C@H](N)C[C@H]2C(=O)N3)c(OC)c1 [CBK289560] | 104% |
| O=[N+]([O-])c1cccc(-c2csc(N/N=C\c3cccc(O)c3)n2)c1 [CBK263418] | 95.5% |
| Cc1cc(COc2nc3ccccc3nc2N2CCCC2C(=O)OC(C)(C)C)no1 (stereo not shown) [CBK173753] | 85.8% |
| Cc1cc(OC(F)(F)F)ccc1NS(=O)(=O)c1ccc(-c2ccon2)s1 [CBK062361] | 86.7% |
| Cc1cc(COC(=O)N2CCC(CO)CC2)cc(C)n1 [CBK200152] | 91% |
| CCN(CC)C(=O)Cn1ncc2c3sc(C)cc3n(CC)c2c1=O [CBK284167] | 99.3% |
| CC(=O)N1C[C@@H](c2cccc(C)c2)[C@@H]2CN(CC3CC3)CC[C@@H]21 [CBK283372] | 103% |
| O=C(OCCC1SC(NC2CC3C=CC2C3)=NC1=O)c1cc(C(F)(F)F)ccc1C(F)(F)F (stereo not shown) [CBK200058T] | 88.1% |
| Cc1c(C(=O)N2CCC(n3cncn3)CC2)sc2cccc(F)c12 [CBK305520] | 103% |
| O=C(O)c1ccc(Br)c(S(=O)(=O)Nc2ccc(Cl)cc2)c1 [CBK263247] | 98% |
| COc1cc(-c2cnc3[nH]c(=O)n(CCc4ccncc4)c3n2)cc(OC)c1OC [CBK064620] | 96.9% |
| COC(=O)C#CCNc1cc(Cl)ccc1Cl [CBK025852] | 57.6% |
| O=c1[nH]c2ncc(-c3ccco3)nc2n1Cc1cccs1 [CBK064438] | 103% |
| CCOc1ccc(N2C(=O)CC(N3CCN(c4ccccn4)CC3)C2=O)cc1 (stereo not shown) [CBK263285] | 100% |
| Cn1cnc2cc(C(=O)N3CC(C(=O)N4CCN(c5ccccc5)CC4)C3)ccc21 [CBK285664] | 82.5% |
| CN(C)c1ccc(-c2cc(N3CCN(S(=O)(=O)c4ccc(Cl)cc4)CC3)ncn2)cc1 [CBK091158] | 93.5% |
| COc1ccc(/C=N/NC(=O)CCc2c(C)n[nH]c2C)cc1O [CBK262894] | 93.6% |
| Cc1ccc(C2=NN(C(=N)SC3CC(=O)N(c4ccc(C(=O)O)cc4)C3=O)C(c3ccc(Cl)cc3)C2)cc1 (stereo not shown) [CBK262472] | 91.5% |
| COc1cc(C(=O)N2CCC3(CC2)CC(=O)c2cc(C)c(C)cc2O3)ccc1C [CBK164202] | 105% |
| Cc1[nH]c(=O)[nH]c(=O)c1CCC(=O)N(C)CC(=O)Nc1cccc(F)c1 [CBK305703] | 99.6% |

| SMILES | viability at 28.5 h, 10 µM |
| --- | --- |
| Cn1c(=O)c2c(ncn2Cc2ccccc2)n(C)c1=O [CBK133402] | 102% |
| Cc1ccc(NC(=O)c2ccncc2)c(Br)c1 [CBK058282] | 94.1% |
| C=CCn1c2ccccc2c2nnc(SC(CC)C(=O)N3c4ccccc4Sc4ccccc43)nc21 (stereo not shown) [CBK263040] | 90.7% |
| CCN(CC)C(=O)Cn1ncc2c3sc(C)cc3n(C)c2c1=O [CBK284156] | 92.9% |
| CCN(CC)C(=O)CN1C(=O)N2CCCN=C2c2ccccc21 [CBK284398] | 84.4% |
| COc1ccc([C@@H]2CCN(C(=O)Cc3ccc(F)cc3)C[C@H]2O)cc1 [CBK283709] | 88.8% |
| COc1ccc(N2CCN(c3cncc(-c4ccc(C(N)=O)cc4)n3)CC2)cc1OC [CBK065820] | 93.8% |
| Fc1cc(Br)ccc1COc1cccnc1Cl [CBK161281] | 68.4% |
| COCCn1c(SC(C)C(=O)N2CCOCC2)nc2cc(Cl)ccc21 (stereo not shown) [CBK305580] | 94.8% |
| COc1ccc(C)cc1NC(=O)CCN1CCN(C)CC1 [CBK264216] | 102% |
| CCCNc1cncc(-c2cccnc2)n1 [CBK037921] | 99.1% |
| CN1CCN(c2ccccc2NC(=S)NC(=O)c2ccco2)CC1 [CBK267909] | 85.2% |
| CCc1ncc2c(n1)CN(Cc1cc(=O)n3cccc(C)c3n1)CC2 [CBK305914] | 84.6% |
| Cn1ncc2c1NC(=O)CC2c1c[nH]nc1-c1ccccc1 (stereo not shown) [CBK287941] | 99.5% |
| CC(=O)Oc1ccc(N2C(=O)CCSC2=S)cc1 [CBK005283] | 89.4% |
| Cc1cc(S(=O)(=O)NCc2cc(F)c(F)c(F)c2)c(C)cc1Cl [CBK043813] | 85% |
| COc1ccccc1NC(=O)c1c(NC(=O)Cc2ccccc2)sc2c1CCC(C(C)(C)C)C2 (stereo not shown) [CBK264102] | 94.1% |
| CCOC(=O)C(Cc1ccccc1)C(=O)Nc1ccc(Cl)cc1 (stereo not shown) [CBK261463] | 84.2% |
| COc1cc(-c2nc3ncccc3cc2NC(=O)C(C)C)cc(OC)c1OC [CBK073661] | 96.6% |
| CC(C)CCCC(=O)n1ccn(CCCOc2ccccc2)c1=O [CBK106561] | 101% |
| Cc1ccc(C(NC(=O)C2CCN(Cc3ccc(Cl)cc3)CC2)c2ccccn2)cc1 (stereo not shown) [CBK148007] | 103% |
| CN(Cc1ccccc1)c1nccnc1-c1ccsc1 [CBK037394] | 91% |

| SMILES | viability at 28.5 h, 10 µM |
| --- | --- |
| CCCC/C=C/c1cnc2[nH]c(=O)n(Cc3ccc(S(N)(=O)=O)cc3)c2n1 [CBK064956] | 98.8% |
| Cc1ccc(Cn2nc(NC(=O)c3cccn3C)c3ccccc32)cc1 [CBK048214] | 97.4% |
| CN(C)c1ccc(Nc2cc(-c3ccc(OCc4ccccc4)cc3)ncn2)cc1 [CBK090941] | 113% |
| CCc1ccc(OCCNc2cc(N3CCN(CCO)CC3)ccc2[N+](=O)[O-])cc1 [CBK046496] | 91.7% |
| O=C(O)C(Cc1ccccc1)C(C(=O)O)c1ccccc1 (stereo not shown) [CBK286578] | 94.3% |
| COC(=O)[C@H](CC1CCCCC1)NS(=O)(=O)c1ccc(C(C)C)cc1 [CBK044551] | 96.3% |
| COc1ccc(C(=O)/C=C/Nc2ccc(S(=O)(=O)NC(=N)N)cc2)cc1 [CBK262277] | 84.1% |
| CCOC(=O)C1CCN(C(=O)c2ccc(OC)cc2)CC1 [CBK074220] | 99.2% |
| Nc1nonc1NC(=O)c1ccccc1Cl [CBK019040] | 99.3% |
| CN(CCO)C(=O)CCn1c(C(F)F)cc2cccnc21 [CBK282805] | 91.9% |
| Nc1nnc(SCC(=O)Nc2ccc3c(c2)OCCO3)s1 [CBK266331] | 95.6% |
| CCCc1n[nH]c(=S)n1CC(=O)Nc1cccc(-n2ncc(C(=O)OCC)c2C)c1 [CBK297746] | 90.2% |
| COCC(C)NCc1cc(-c2ccc(Cl)cc2)c[nH]c1=O (stereo not shown) [CBK284726] | 79% |
| COc1cc(/C=C2/NC(=O)N(c3ccccc3)C2=O)ccc1OCc1ccc(C(=O)O)cc1 [CBK265139] | 84.6% |
| Fc1cc(F)c(OCCCCOc2nccnc2N2CCNCC2)cc1F [CBK028624T] | 105% |
| Cc1ccc2nc(-c3ccccc3)c(C)c(C(=O)O)c2c1 [CBK270268] | 87.6% |
| CN1CCN(C(=O)c2ccc(-c3cccc(C(=O)NCCO)c3)nc2N(C)C)CC1 [CBK076581] | 91.8% |
| CC(C)Cn1cncc1CN1C(=O)CC2(CCCC2)CC1=O [CBK306600] | 116% |
| CC1c2ccsc2CCN1S(C)(=O)=O (stereo not shown) [CBK023574] | 86.2% |
| CCOc1ccc(-c2n[nH]c(C)c2-c2ccc(OC)c(OC)c2)c(O)c1 [CBK288106] | 102% |
